From patent publication US11617726B2, “Method for preventing, treating, or ameliorating a microbial infection” (priority 2018, dated 2023)

System: Acinetobacter baumannii isolates
Assay: Antimicrobial susceptibility test, disc diffusion method (CLSI M100-S24)
Format: cell-based
Design: key to Inhibition zone: “NZ” indicated that no zone of inhibition was observed
Conditions: for susceptibility category: LEV disc; for Inhibition zone: disc diffusion
Experimental: A total of 33 non-duplicate, non-consecutive clinical isolates of Multi-Drug Resistant (MDR) Acinetobacter baumannii were collected from burn wards (“AB1-AB33”). Acinetobacter baumannii ATCC BAA 747 and Pseudomonas aeruginosa ATCC 27853 were used as control strains. The isolates were stored at −80° C. in trypticase soy broth containing 20% glycerol.
Antimicrobial susceptibility tests of the collection of isolates were conducted using the disc diffusion method. The experiment was performed according to the recommendations and guidelines of Clinical Laboratory Standard Institutes (CLSI M100-S24; 2014). Clinical and Laboratory Standards Institute (CLSI), “Performance standards for antimicrobial susceptibility testing; twenty-fourth informational supplement,” Document M100-S24, Clinical and Laboratory Standards Institute (CLSI), Wayne, Pa., USA, 2014.
A panel of commercial antibiotic discs (Amoxicillin (AMX), Amoxicillin/clavulanic acid (AMX/CLA), Piperacillin (PIP), Piperacillin/Tazobactam (PIP/TAZ), Ceftazidime (CAZ), Cefotaxime (CTX), Cefepime (FEP), Cefoxitin (FOX), Aztreonam (ATM), Imipenem (IP), Gentamicin (GEN), Amikacin (AK), Neomycin (NEO), Levofloxacin (LEV), Chloramphenicol (CHL), Tetracycline (TET), sulfamethoxazole/trimethoprim (SUL/TRI) was used for susceptibility testing. All commercial antibiotic discs were purchased from BBL (Becton Dickinson, USA).
Forty grams of Mueller-Hinton Agar (MHA) were suspended in 1 Liter distilled water and then boiled to dissolve the powder completely. The medium was sterilized by autoclaving at 121° C. for 15 min. After autoclaving, the medium was cooled to 45° C. and 25 mL of molten agar media was poured into sterile Petri dishes (90 mm diameter) to give a depth of about 4 mm. The surface of the agar was dried to remove excess moisture before use. The plates were stored at 4-8° C. in sealed plastic bags if not used immediately.
The inoculum suspension was prepared by selecting three to five morphologically similar colonies from overnight growth (16-24 h of incubation) on blood agar medium. […] The suspension density was measured using a UV spectrophotometer calibrated with a 0.5 McFarland standard. The density of the suspension was adjusted to McFarland 0.5 by addition of saline or more microorganisms. The adjusted inoculum suspension was used within 60 min of preparation.
A sterile cotton swab was dipped into the bacterial suspension and the excess fluid was removed by turning the swab against the inside wall of the tube to avoid over-inoculation of plates. The inoculum was spread evenly over the entire surface of the agar plate by swabbing in three directions.
The predetermined panel of antimicrobial disks was applied firmly on the inoculated Mueller-Hinton agar surface within 15 min of inoculation of the plates by a disc dispenser device. A maximum of six disks were accommodated on a 90-mm circular plate.
Within 15 min of application of antimicrobial disks, the plates were inverted and incubated aerobically at 35-37° C. for 18-20 h.
After incubation, inhibition zones were measured at the point where no obvious growth is detected by the unaided eye when the plate is held about 30 cm from the eye. Inhibition zone diameters were measured to the nearest millimeter with a ruler. The plates were read from the back of the plate with reflected light against a dark background. Zone diameters were interpreted and categorized as susceptible “S”, intermediate “I”, or resistant “R” according to the CLSI clinical breakpoint tables (see Table 1 and Table 2).

C[C@H]1COc2c(N3CCN(C)CC3)c(F)cc3c(=O)c(C(=O)O)cn1c23 [LEV, Levofloxacin]
15 mm: Inhibition zone (isolate AB8) | Inhibition zone (isolate AB15) | Inhibition zone (isolate AB28) | Inhibition zone (isolate AB29) | Inhibition zone (isolate AB30)
11 mm: Inhibition zone (isolate AB11) | Inhibition zone (isolate AB14) | Inhibition zone (isolate AB17) | Inhibition zone (isolate AB19) | Inhibition zone (isolate AB23)
29 mm: Inhibition zone (isolate AB3)
13 mm: Inhibition zone (isolate AB18) | Inhibition zone (isolate AB20)
21 mm: Inhibition zone (isolate AB6)
30 mm: Inhibition zone (isolate AB1) | Inhibition zone (isolate AB2) | Inhibition zone (isolate AB4) | Inhibition zone (isolate AB33)
I (Intermediate 14-16): susceptibility category (isolate AB7) | susceptibility category (isolate AB8) | susceptibility category (isolate AB10) | susceptibility category (isolate AB15) | susceptibility category (isolate AB21) | susceptibility category (isolate AB22) | susceptibility category (isolate AB25) | susceptibility category (isolate AB28) | susceptibility category (isolate AB29) | susceptibility category (isolate AB30)
12 mm: Inhibition zone (isolate AB24)
19 mm: Inhibition zone (isolate AB5)
S (Sensitive ≥17): susceptibility category (isolate AB1) | susceptibility category (isolate AB2) | susceptibility category (isolate AB3) | susceptibility category (isolate AB4) | susceptibility category (isolate AB5) | susceptibility category (isolate AB6) | susceptibility category (isolate AB9) | susceptibility category (isolate AB32) | susceptibility category (isolate AB33)
28 mm: Inhibition zone (isolate AB9)
18 mm: Inhibition zone (isolate AB32)
8 mm: Inhibition zone (isolate AB13) | Inhibition zone (isolate AB27)
R (Resistant ≤13): susceptibility category (isolate AB11) | susceptibility category (isolate AB12) | susceptibility category (isolate AB13) | susceptibility category (isolate AB14) | susceptibility category (isolate AB16) | susceptibility category (isolate AB17) | susceptibility category (isolate AB18) | susceptibility category (isolate AB19) | susceptibility category (isolate AB20) | susceptibility category (isolate AB23) | susceptibility category (isolate AB24) | susceptibility category (isolate AB26) | susceptibility category (isolate AB27) | susceptibility category (isolate AB31)
10 mm: Inhibition zone (isolate AB12) | Inhibition zone (isolate AB31)
NZ: Inhibition zone (isolate AB16) | Inhibition zone (isolate AB26)
14 mm: Inhibition zone (isolate AB7) | Inhibition zone (isolate AB10) | Inhibition zone (isolate AB21) | Inhibition zone (isolate AB22) | Inhibition zone (isolate AB25)

CO[C@@]1(NC(=O)Cc2cccs2)C(=O)N2C(C(=O)O)=C(COC(N)=O)CS[C@@H]21 [FOX, Cefoxitin]
NZ: Inhibition zone (isolate AB1) | Inhibition zone (isolate AB2) | Inhibition zone (isolate AB3) | Inhibition zone (isolate AB4) | Inhibition zone (isolate AB5) | Inhibition zone (isolate AB6) | Inhibition zone (isolate AB7) | Inhibition zone (isolate AB8) | Inhibition zone (isolate AB9) | Inhibition zone (isolate AB10) | Inhibition zone (isolate AB11) | Inhibition zone (isolate AB12) | Inhibition zone (isolate AB13) | Inhibition zone (isolate AB14) | Inhibition zone (isolate AB15) | Inhibition zone (isolate AB17) | Inhibition zone (isolate AB18) | Inhibition zone (isolate AB19) | Inhibition zone (isolate AB20) | Inhibition zone (isolate AB21) | Inhibition zone (isolate AB22) | Inhibition zone (isolate AB23) | Inhibition zone (isolate AB24) | Inhibition zone (isolate AB25) | Inhibition zone (isolate AB26) | Inhibition zone (isolate AB27) | Inhibition zone (isolate AB28) | Inhibition zone (isolate AB29) | Inhibition zone (isolate AB30) | Inhibition zone (isolate AB32) | Inhibition zone (isolate AB33)
22 mm: Inhibition zone (isolate AB16)
9 mm: Inhibition zone (isolate AB31)

CC(C)(O/N=C(\C(=O)N[C@@H]1C(=O)N2C(C(=O)[O-])=C(C[n+]3ccccc3)CS[C@H]12)c1csc(N)n1)C(=O)O [CAZ, Ceftazidime]
22 mm: Inhibition zone (isolate AB33)
21 mm: Inhibition zone (isolate AB4) | Inhibition zone (isolate AB9)
8 mm: Inhibition zone (isolate AB27) | Inhibition zone (isolate AB28) | Inhibition zone (isolate AB31) | Inhibition zone (isolate AB32)
9 mm: Inhibition zone (isolate AB5)
32 mm: Inhibition zone (isolate AB16)
15 mm: Inhibition zone (isolate AB26)
26 mm: Inhibition zone (isolate AB3)
28 mm: Inhibition zone (isolate AB6)
17 mm: Inhibition zone (isolate AB2) | Inhibition zone (isolate AB25)
12 mm: Inhibition zone (isolate AB17)
20 mm: Inhibition zone (isolate AB1)
NZ: Inhibition zone (isolate AB7) | Inhibition zone (isolate AB8) | Inhibition zone (isolate AB10) | Inhibition zone (isolate AB11) | Inhibition zone (isolate AB12) | Inhibition zone (isolate AB13) | Inhibition zone (isolate AB14) | Inhibition zone (isolate AB15) | Inhibition zone (isolate AB18) | Inhibition zone (isolate AB19) | Inhibition zone (isolate AB20) | Inhibition zone (isolate AB21) | Inhibition zone (isolate AB22) | Inhibition zone (isolate AB23) | Inhibition zone (isolate AB24) | Inhibition zone (isolate AB29) | Inhibition zone (isolate AB30)

CN(C)[C@@H]1C(O)=C(C(N)=O)C(=O)[C@@]2(O)C(O)=C3C(=O)c4c(O)cccc4[C@@](C)(O)[C@H]3C[C@@H]12 [TET, Tetracycline]
25 mm: Inhibition zone (isolate AB25)
23 mm: Inhibition zone (isolate AB9) | Inhibition zone (isolate AB23)
22 mm: Inhibition zone (isolate AB2) | Inhibition zone (isolate AB3)
NZ: Inhibition zone (isolate AB1) | Inhibition zone (isolate AB5) | Inhibition zone (isolate AB6) | Inhibition zone (isolate AB10) | Inhibition zone (isolate AB11) | Inhibition zone (isolate AB12) | Inhibition zone (isolate AB13) | Inhibition zone (isolate AB16) | Inhibition zone (isolate AB26) | Inhibition zone (isolate AB31)
20 mm: Inhibition zone (isolate AB18) | Inhibition zone (isolate AB22) | Inhibition zone (isolate AB28) | Inhibition zone (isolate AB30)
28 mm: Inhibition zone (isolate AB20) | Inhibition zone (isolate AB32)
24 mm: Inhibition zone (isolate AB14) | Inhibition zone (isolate AB33)
8 mm: Inhibition zone (isolate AB27)
17 mm: Inhibition zone (isolate AB19)
21 mm: Inhibition zone (isolate AB4) | Inhibition zone (isolate AB7) | Inhibition zone (isolate AB17)
26 mm: Inhibition zone (isolate AB8)
19 mm: Inhibition zone (isolate AB15) | Inhibition zone (isolate AB21) | Inhibition zone (isolate AB24) | Inhibition zone (isolate AB29)
